The values below come from US20220363686A1 (AiCuris GmbH & Co. KG, priority 2018, published 2022).

One series deals with HBV. As to the kind of experiment: Determination of HBV DNA from the supernatants of HepAD38 cells (anti-HBV activity). Format: cell-based, hepatitis B virus. The settings on record: Hepatitis B virus, HePAD38, 144 h, HBV DNA in HepAD38 supernatant, day 6, qPCR; read-out: Cell Activity. A digest of the protocol:
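EC50 derived by non-linear regression of relative HBV DNA copy numbers, measured by qPCR (plasmid standards) in day-6 filtered supernatants. Before this, HepAD38 cells were exposed to serial half-log compound dilutions without tetracycline, releasing viral expression; cultures kept at 37 °C, 5% CO2.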
(Real-time PCR tracks product formation cycle by cycle.)

The target in series [1] is HBV core protein (C-terminal truncated core protein containing 149 amino acids of the N-terminal assembly domain) (UniProt P03146). As to the kind of experiment: Biochemical capsid assembly assay (fluorescence quenching). Further details: rows headed: Assembly Activity; other: BODIPY-FL labelled core protein, assembly started with NaCl, read after 6 min. To be noted: read-out: Assembly Activity; BODIPY-FL labelled core protein, assembly started with NaCl, read after 6 min. The method, then: The screening for assembly effector activity was done based on a fluorescence quenching assay published by Zotnick et al. (2007). The C-terminal truncated core protein containing 149 amino acids of the N-terminal assembly domain fused to a unique cysteine residue at position 150 and was expressed in E. coli using the pET expression system (Merck Chemicals, Darmstadt). Purification of core dimer protein was performed using a sequence of size exclusion chromatography steps. In brief, the cell pellet from 1 L BL21 (DE3) Rosetta2 culture expressing the coding sequence of core protein cloned NdeI/XhoI into expression plasmid pET21b was treated for 1 h on ice with a native lysis buffer (Qproteome Bacterial Protein Prep Kit; Qiagen, Hilden). After a centrifugation step the supernatant was precipitated during 2 h stirring on ice with 0.23 g/ml of solid ammonium sulfate. Following further centrifugation the resulting pellet was resolved in buffer A (100 mM Tris, pH 7.5; 100 mM NaCl; 2 mM DTT) and was subsequently loaded onto a buffer A equilibrated CaptoCore 700 column (GE HealthCare, Frankfurt). The column flow through containing the assembled HBV capsid was dialyzed against buffer N (50 mM NaHCO3 pH 9.6; 5 mM DTT) before urea was added to a final concentration of 3M to dissociate the capsid into core dimers for 1.5 h on ice. The protein solution was then loaded onto a IL Sephacryl S300 column. After elution with buffer N core dimer containing fractions were identified by SDS-PAGE and subsequently pooled and dialyzed against 50 mM HEPES pH 7.5; 5 mM DTT. To improve the assembly capacity of the purified core dimers a second round of assembly and disassembly starting with the addition of 5 M NaCl and including the size exclusion chromatography steps described above was performed. From the last chromatography step core dimer containing fractions were pooled and stored in aliquots at concentrations between 1.5 to 2.0 mg/ml at −80° C.
Immediately before labelling the core protein was reduced by adding freshly prepared DTT in a final concentration of 20 mM. After 40 min incubation on ice storage buffer and DTT was removed using a Sephadex G-25 column (GE HealthCare, Frankfurt) and 50 mM HEPES, pH 7.5. For labelling 1.6 mg/ml core protein was incubated at 4° C. and darkness overnight with BODIPY-FL maleimide (Invitrogen, Karlsruhe) in a final concentration of 1 mM. After labelling the free dye was removed by an additional desalting step using a Sephadex G-25 column. Labelled core dimers were stored in aliquots at 4° C. In the dimeric state the fluorescence signal of the labelled core protein is high and is quenched during the assembly of the core dimers to high molecular capsid structures. The screening assay was performed in black 384 well microtiter plates in a total assay volume of 10 μl using 50 mM HEPES pH 7.5 and 1.0 to 2.0 μM labelled core protein. Each screening compound was added in 8 different concentrations using a 0.5 log-unit serial dilution starting at a final concentration of 100 μM, 31.6 μM or 10 μM, In any case the DMSO concentration over the entire microtiter plate was 0.5%. The assembly reaction was started by the injection of NaCl to a final concentration of […] which induces the assembly process to approximately 25% of the maximal quenched signal. 6 min after starting the reaction the fluorescence signal was measured using a Clariostar plate reader (BMG Labtech, Ortenberg) with an excitation of 477 nm and an emission of 525 nm. As 100% and 0% assembly control HEPES buffer containing 2.5 M and 0 M NaCl was used. Experiments were performed thrice in triplicates. EC50 values were calculated by non-linear regression analysis using the Graph Pad Prism 6 software (GraphPad Software, La Jolla, USA).

Series [2] in a line: Cell viability assay (AlamarBlue). The settings on record: human, HepAD38 cells. In general terms: The colour change of resazurin is a common sign of viable cells or microbes.

As usually defined, the CC50 is the concentration that lowers cell viability or growth by half. Lower therefore signals harm at low concentration.

Chain of HBV core protein (C-terminal truncated core protein containing 149 amino acids of the N-terminal assembly domain) (P03146 whole entry, the tested form may be a part): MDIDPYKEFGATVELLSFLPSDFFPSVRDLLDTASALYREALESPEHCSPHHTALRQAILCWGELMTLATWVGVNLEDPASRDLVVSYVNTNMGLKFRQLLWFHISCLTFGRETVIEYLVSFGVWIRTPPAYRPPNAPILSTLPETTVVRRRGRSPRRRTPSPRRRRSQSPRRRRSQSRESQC

As to `O=C(O)c1ccccc1C1CC(=O)N(c2cnn3c2CN(C(=O)c2cc4ccccc4[nH]2)CC3)C1` (stereo not drawn) [Example 86, 2-{1-[5-(1H-indole-2-carbonyl)-4H,5H,6H,7H-pyrazolo[1,5-a]pyrazin-3-yl]-5-oxopyrrolidin-3-yl}benzoic Acid], in the series with HBV, the EC50 was in the range of 1 to 10 µM. Besides, the IC50 in series [1] is less than 5 µM. Besides, the CC50 at 6 days in series [2] was more than 10 µM.

With `O=C(c1cc2ccccc2[nH]1)N1CCn2ncc(N3CCC4(CC4)C3=O)c2C1` [Example 76, 5-[5-(1H-indole-2-carbonyl)-4H,5H,6H,7H-pyrazolo[1,5-a]pyrazin-3-yl]-5-azaspiro[2.4]heptan-4-one], in the series on HBV, the EC50 was in the range of 1 to 10 µM. Besides, the IC50 in series [1] was in the range of 5 to 10 µM. In series [2], this compound came in with a CC50 at 6 days of more than 10 µM.

For the compound `CN(C(=O)c1cnn2c1CN(C(=O)c1cc3c(F)ccc(F)c3[nH]1)CC2)C1(CO)CC1` [Example 82, 5-(4,7-difluoro-1H-indole-2-carbonyl)-N-[1-(hydroxymethyl)cyclopropyl]-N-methyl-4H,5H,6H,7H-pyrazolo[1,5-a]pyrazine-3-carboxamide], in the series on HBV, the EC50 is less than 1 µM. In addition, the IC50 in series [1] is less than 5 µM. Besides, in series [2], the 50% cytotoxic concentration (CC50) at 6 days was more than 10 µM.

Turning to `O=C(c1cc2cc(F)c(Cl)cc2[nH]1)N1CCn2ncc(C(=O)N3CCC(O)CC34CC4)c2C1` (stereo not drawn) [Example 117, 4-[5-(6-chloro-5-fluoro-1H-indole-2-carbonyl)-4H,5H,6H,7H-pyrazolo[1,5-a]pyrazine-3-carbonyl]-4-azaspiro[2.5]octan-7-ol], the EC50 in the series with HBV is less than 1 µM. Further, in series [1], the IC50 was less than 5 µM. Further, the CC50 at 6 days in series [2] was more than 10 µM.

Turning to `O=C(c1cc2ccccc2[nH]1)N1CCn2ncc(C(=O)N3CCOCCC34CC4)c2C1` [Example 68, 4-[5-(1H-indole-2-carbonyl)-4H,5H,6H,7H-pyrazolo[1,5-a]pyrazine-3-carbonyl]-7-oxa-4-azaspiro[2.6]nonane], in the series on HBV, the EC50 was less than 1 µM. The IC50 in series [1] was less than 5 µM. For the same compound, the half-maximal cytotoxic concentration (CC50) at 6 days in series [2] is more than 10 µM.

Regarding `CN(C(=O)c1cnn2c1CN(C(=O)c1cc3ccccc3[nH]1)CC2)C1(c2ccncc2)CC1` [Example 46, 5-(1H-indole-2-carbonyl)-N-methyl-N-[1-(pyridin-4-yl)cyclopropyl]-4H,5H,6H,7H-pyrazolo[1,5-a]pyrazine-3-carboxamide], the EC50 with HBV is less than 1 µM. Moreover, the IC50 in series [1] is less than 5 µM. In addition, the 50% cytotoxic concentration (CC50) at 6 days in series [2] was more than 10 µM.

Turning to `O=C(c1cc2ccccc2[nH]1)N1CCn2ncc(C(=O)N(CCO)C3(CO)CC3)c2C1` [Example 75, N-(2-hydroxyethyl)-N-[1-(hydroxymethyl)cyclopropyl]-5-(1H-indole-2-carbonyl)-4H,5H,6H,7H-pyrazolo[1,5-a]pyrazine-3-carboxamide], the EC50 in the series on HBV was less than 1 µM. In addition, the IC50 in series [1] was less than 5 µM. Besides, the half-maximal cytotoxic concentration (CC50) at 6 days in series [2] is more than 10 µM.

In the case of `Cc1c(F)ccc2[nH]c(C(=O)N3CCn4ncc(C(=O)N5CCC(O)CC56CC6)c4C3)cc12` (stereo not drawn) [Example 120, 4-[5-(5-fluoro-4-methyl-1H-indole-2-carbonyl)-4H,5H,6H,7H-pyrazolo[1,5-a]pyrazine-3-carbonyl]-4-azaspiro[2.5]octan-7-ol], in the series with HBV, the EC50 was less than 1 µM. Further, in series [1], the IC50 was less than 5 µM. The same compound had a cytotoxic concentration (CC50) at 6 days in series [2] of more than 10 µM.

Turning to `O=C(c1cc2ccccc2[nH]1)N1CCn2ncc(C(=O)N3CCC(F)(F)C34CC4)c2C1` [Example 56, 2-(3-{7,7-difluoro-4-azaspiro[2.4]heptane-4-carbonyl}-4H,5H,6H,7H-pyrazolo[1,5-a]pyrazine-5-carbonyl)-1H-indole], in the series with HBV, the EC50 was less than 1 µM. For the same compound, the IC50 in series [1] is less than 5 µM. This compound returned a half-maximal cytotoxic concentration (CC50) at 6 days in series [2] of more than 10 µM.

`CN(C(=O)c1cnn2c1CN(C(=O)c1cc3c(F)ccc(F)c3[nH]1)CC2)C1(COC(F)F)CC1` [Example 24, 5-(4,7-difluoro-1H-indole-2-carbonyl)-N-{1-[(difluoromethoxy)methyl]cyclopropyl}-N-methyl-4H,5H,6H,7H-pyrazolo[1,5-a]pyrazine-3-carboxamide]: the EC50 in the series on HBV was less than 1 µM. Besides, the IC50 in series [1] was less than 5 µM. For the same compound, the CC50 at 6 days in series [2] was more than 10 µM.

Turning to `O=C(NC1(c2ccncc2)CC1)c1cnn2c1CN(C(=O)c1cc3ccccc3[nH]1)CC2` [Example 98, 5-(1H-indole-2-carbonyl)-N-[1-(pyridin-4-yl)cyclopropyl]-4H,5H,6H,7H-pyrazolo[1,5-a]pyrazine-3-carboxamide], the EC50 in the series with HBV was less than 1 µM. For the same compound, in series [1], the IC50 was less than 5 µM. The same compound registered a CC50 at 6 days in series [2] of more than 10 µM.

Regarding `COCC1(N(C)S(=O)(=O)c2cnn3c2CN(C(=O)c2cc4ccccc4[nH]2)CC3)CC1` [Example 32, 5-(1H-indole-2-carbonyl)-N-[1-(methoxymethyl)cyclopropyl]-N-methyl-4H,5H,6H,7H-pyrazolo[1,5-a]pyrazine-3-sulfonamide], the EC50 with HBV is less than 1 µM. The IC50 in series [1] was less than 5 µM. For the same compound, in series [2], the 50% cytotoxic concentration (CC50) at 6 days is more than 10 µM.

Turning to `CN(C(=O)c1cnn2c1CN(C(=O)c1cc3ccccc3[nH]1)CC2)C1(C2OCCO2)CC1` [Example 138, N-[1-(1,3-dioxolan-2-yl)cyclopropyl]-5-(1H-indole-2-carbonyl)-N-methyl-4H,5H,6H,7H-pyrazolo[1,5-a]pyrazine-3-carboxamide], in the series with HBV, the EC50 was less than 1 µM. The IC50 in series [1] was less than 5 µM. Also, the cytotoxic concentration (CC50) at 6 days in series [2] is more than 10 µM.

As for `CN(C(=O)c1cnn2c1CN(C(=O)c1cc3ccccc3[nH]1)CC2)C1(COCCCO)CC1` [Example 65, N-{1-[(3-hydroxypropoxy)methyl]cyclopropyl}-5-(1H-indole-2-carbonyl)-N-methyl-4H,5H,6H,7H-pyrazolo[1,5-a]pyrazine-3-carboxamide], in the series with HBV, the EC50 is less than 1 µM. Further, in series [1], the IC50 is less than 5 µM. This compound gave a cytotoxic concentration (CC50) at 6 days in series [2] of more than 10 µM.

Regarding `O=C(NC1(CCOC(F)F)COC1)c1cnn2c1CN(C(=O)c1cc3ccccc3[nH]1)CC2` [Example 148, N-{3-[2-(difluoromethoxy)ethyl]oxetan-3-yl}-5-(1H-indole-2-carbonyl)-4H,5H,6H,7H-pyrazolo[1,5-a]pyrazine-3-carboxamide], the EC50 in the series with HBV is less than 1 µM. The IC50 in series [1] was less than 5 µM. In series [2], this compound had a CC50 at 6 days of more than 10 µM.

`COCC1(N(C)C(=O)c2cnn3c2CN(C(=O)c2cc4c(Cl)cccc4[nH]2)CC3)CC1` [Example 7, 5-(4-chloro-1H-indole-2-carbonyl)-N-[1-(methoxymethyl)cyclopropyl]-N-methyl-4H,5H,6H,7H-pyrazolo[1,5-a]pyrazine-3-carboxamide]: in the series with HBV, the EC50 is less than 1 µM. Also, in series [1], the IC50 is less than 5 µM. Further, in series [2], the half-maximal cytotoxic concentration (CC50) at 6 days was more than 10 µM.

On to `O=C(c1cc2ccccc2[nH]1)N1CCn2ncc(C(=O)N3CCC(O)CC34CC4)c2C1` (stereo not drawn) [Example 58, 4-[5-(1H-indole-2-carbonyl)-4H,5H,6H,7H-pyrazolo[1,5-a]pyrazine-3-carbonyl]-4-azaspiro[2.5]octan-7-ol], for which the EC50 in the series with HBV was less than 1 µM. In addition, in series [1], the IC50 was less than 5 µM. Further, in series [2], the CC50 at 6 days is more than 10 µM.
